According to patent US20150335647A1, “Methods of Increasing Liver Proliferation” (priority 2009, published 2015):

Key:
[1] = tested on: hepatocyte proliferation; assay: BrdU hepatocyte proliferation after 2/3 hepatectomy in mice treated with dorsomorphin; assay type: in vivo; conditions: 8 week old mice, dorsomorphin 10 mg/kg vs saline, injected 24 and 12 h prior to, at, and 12, 24, 36 h after 2/3 hepatectomy; measured at 36 and 48 hours
Procedure: Animals were used to examine the role of various members of BMP signaling in restoration of liver mass after injury. Mice were subjected to two-thirds (“⅔”) or massive eighty percent (80%) hepatectomy. Surgery was performed on adult mice at least 8 weeks of age. For surgery, mice were anesthetized with 100 mg/kg ketamine and 10 mg/kg xylazine which were injected intraperitoneally. […] This was repeated until the subject was unconscious. Hair was removed from the surgical site using a clipper and the skin was disinfected using aseptic technique and betadyne. The scrubbed area was rinsed with 70% alcohol. To avoid hypothermia, the animal was not wetted more than necessary. An incision was made with a sterile scissors at the level of the xiphiod approximately one centimeter toward the umbilicus. The peritoneum was entered with a scissors and the tip of the xiphoid was excised. For ⅔ hepatectomy, the liver was exteriorized through the incision via gentle pressure on the flanks over an area previously prepped. A 4-0 silk ligature was placed around the exteriorized portion of the liver and tied. The anterior portion of the liver distal to the tie was then excised. A 4-0 proline was used to close the fascia and a 4-0 nylon was used to close the skin in a subcuticular fashion. […]

[2] = tested on: BMP signaling; conditions: in vivo; cited from earlier work
[3] = tested on: osteogenic differentiation induced by BMP4 or BMP6; conditions: induced by BMP4 or BMP6 in vitro; compared with noggin; cited from earlier work
[4] = tested on: type I BMP receptors, namely, ALK2, ALK3, and ALK6; conditions: cited from earlier work
[5] = tested on: BMP-mediated SMAD 1, 5 and 8 phosphorylation; conditions: cited from earlier work
[6] = tested on: MAPK p38 activation; conditions: cited from earlier work
[7] = Systemic toxicity of dorsomorphin administration for up to 60 days
Procedure: To provide clinical relevance for the findings discussed above, eight week old mice were injected with an antagonist of BMP signaling. Dorsomorphin was injected for 48 hours prior to, during, and after ⅔ hepatectomy. Specifically, dorsomorphin was injected multiple times at 24 and 12 hours prior to hepatectomy, at the time of hepatectomy, and 12, 24, and 36 hours after hepatectomy.

For `c1cc(-c2cnn3cc(-c4ccc(OCCN5CCCCC5)cc4)cnc23)ccn1` [Dorsomorphin], the “hepatocyte proliferation (BrdU incorporation)” value [1] is given as “marked enhancement of hepatocyte proliferation”, the “dorsalization in zebrafish embryos” value [2] is given as “effectively promote dorsalization” and the “inhibition of osteogenic differentiation” value [3] is given as “more potent than that seen with treatment with noggin”. For the same compound, the “inhibition of type I BMP receptors ALK2, ALK3, and ALK6” value [4] was “selectively inhibiting”, the “BMP-mediated SMAD 1, 5 and 8 phosphorylation” value [5] was “block” and the “MAPK p38 activation” value [6] was “without affecting”. The “effect on bone marrow” value [7] was “no effect”, the effect on growth [7] was “no effect” and the “effect on white blood cell count” value [7] was “no effect”. For the same compound, the systemic toxicity [7] was “did not produced systemic toxicity”.
